target: T1, TBK1 (Homo sapiens, UniProt Q9UHD2); test: TBK1 protein kinase assay ([γ-33P]ATP, P81 filterplates); type: biochemical; settings: 50 μM ATP; read-out: Potency (TBK1 IC50 potency score)
T1 construct: All protein kinases were of human origin and encoded full length proteins, unless indicated otherwise; His6; made in house; host or cells: insect Sf21 cells
T1 sequence (Q9UHD2 1-729): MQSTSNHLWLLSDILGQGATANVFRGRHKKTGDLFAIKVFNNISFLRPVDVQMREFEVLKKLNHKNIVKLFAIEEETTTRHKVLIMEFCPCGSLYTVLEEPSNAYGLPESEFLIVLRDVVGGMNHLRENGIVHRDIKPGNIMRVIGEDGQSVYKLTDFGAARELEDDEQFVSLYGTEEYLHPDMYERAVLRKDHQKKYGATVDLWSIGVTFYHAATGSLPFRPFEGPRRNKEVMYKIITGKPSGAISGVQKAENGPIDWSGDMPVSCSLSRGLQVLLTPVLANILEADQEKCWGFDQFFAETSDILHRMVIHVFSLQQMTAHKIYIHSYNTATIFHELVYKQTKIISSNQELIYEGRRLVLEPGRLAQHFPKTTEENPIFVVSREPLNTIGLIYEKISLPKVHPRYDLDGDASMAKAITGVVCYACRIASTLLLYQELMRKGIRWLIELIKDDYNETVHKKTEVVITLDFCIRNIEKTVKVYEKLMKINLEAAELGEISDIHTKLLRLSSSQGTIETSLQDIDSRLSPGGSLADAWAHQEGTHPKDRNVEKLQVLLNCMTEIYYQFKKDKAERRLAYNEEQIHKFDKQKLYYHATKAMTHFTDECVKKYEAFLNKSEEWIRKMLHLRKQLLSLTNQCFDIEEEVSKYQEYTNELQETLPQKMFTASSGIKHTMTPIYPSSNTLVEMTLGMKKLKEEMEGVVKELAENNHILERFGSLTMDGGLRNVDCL
How it was run: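 Human TBK1 assayed for 30 min with peptide substrate (300 μM), 50 μM [γ-33P]ATP and 10 mM magnesium acetate in 50 mM Tris/HCl pH 7.5, 0.1 mM EGTA, 0.1% 2-mercaptoethanol. Stopped with orthophosphoric acid and counted on P81 filters. IC50 from 10 compound concentrations.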

Row | Compound | IC50
1 | O=C(NCCCNc1nc(Nc2ccc(OC3CCN(C4CC4)CC3)nc2)ncc1C1CC1)C1CCC1 [Example 188, Cyclobutanecarboxylic acid (3-{5-cyclopropyl-2-[6-(1-cyclopropyl-piperidin-4-yloxy)-pyridin-3-ylamino]-pyrimidin-4-ylamino}-propyl)-amide] | < 100 nM
2 | O=C(NCCCNc1nc(Nc2ccc3ncnn3c2)ncc1C1CC1)C1CCC1 [Example 189, Cyclobutanecarboxylic acid {3-[5-cyclopropyl-2-([1,2,4]triazolo[1,5-a]pyridin-6-ylamino)-pyrimidin-4-ylamino]-propyl}-amide] | < 100 nM
3 | O=C(NCCCNc1nc(Nc2ccc3nccnc3c2)ncc1C1CC1)C1CCC1 [Example 190, Cyclobutanecarboxylic acid {3-[5-cyclopropyl-2-(quinoxalin-6-ylamino)-pyrimidin-4-ylamino]-propyl}-amide] | < 100 nM
4 | O=C(NCCCNc1nc(Nc2ccc3ncccc3c2)ncc1C1CC1)C1CCC1 [Example 191, Cyclobutanecarboxylic acid {3-[5-cyclopropyl-2-(quinolin-6-ylamino)-pyrimidin-4-ylamino]-propyl}-amide] | < 100 nM
5 | O=C(NCCCNc1nc(Nc2cnn(C3CCOCC3)c2)ncc1C1CC1)C1CCC1 [Example 192, Cyclobutanecarboxylic acid (3-{5-cyclopropyl-2-[1-(tetrahydro-pyran-4-yl)-1H-pyrazol-4-ylamino]-pyrimidin-4-ylamino}-propyl)-amide] | < 100 nM
6 | O=C(NCCCNc1nc(Nc2ccc3cnn(CC4CC4)c3c2)ncc1C1CC1)C1CCC1 [Example 193, Cyclobutanecarboxylic acid {3-[5-cyclopropyl-2-(1-cyclopropylmethyl-1H-indazol-6-ylamino)-pyrimidin-4-ylamino]-propyl}-amide] | < 100 nM
7 | O=C(NCCCNc1nc(Nc2ccc3cn(CC4CC4)nc3c2)ncc1C1CC1)C1CCC1 [Example 194, Cyclobutanecarboxylic acid {3-[5-cyclopropyl-2-(2-cyclopropylmethyl-2H-indazol-6-ylamino)-pyrimidin-4-ylamino]-propyl}-amide] | < 100 nM
8 | CN1CCC(Oc2ccc(Nc3ncc(C4CC4)c(NCCCNC(=O)C4CCC4)n3)cn2)CC1 [Example 195, Cyclobutanecarboxylic acid (3-{5-cyclopropyl-2-[6-(1-methyl-piperidin-4-yloxy)-pyridin-3-ylamino]-pyrimidin-4-ylamino}-propyl)-amide] | < 100 nM
9 | CN1CCN(CCOc2ccc(Nc3ncc(C4CC4)c(NCCCNC(=O)C4CCC4)n3)cn2)CC1 [Example 196, Cyclobutanecarboxylic acid [3-(5-cyclopropyl-2-{6-[2-(4-methyl-piperazin-1-yl)-ethoxy]-pyridin-3-ylamino}-pyrimidin-4-ylamino)-propyl]-amide] | < 100 nM
10 | CN1CCc2ccc(Nc3ncc(C4CC4)c(NCCCNC(=O)C4CCC4)n3)cc2C1 [Example 197, Cyclobutanecarboxylic acid {3-[5-cyclopropyl-2-(2-methyl-1,2,3,4-tetrahydro-isoquinolin-7-ylamino)-pyrimidin-4-ylamino]-propyl}-amide] | < 100 nM
11 | Cn1cnc2cc(Nc3ncc(C4CC4)c(NCCCNC(=O)C4CCC4)n3)cnc21 [Example 198, Cyclobutanecarboxylic acid {3-[5-cyclopropyl-2-(3-methyl-3H-imidazo[4,5-b]pyridin-6-ylamino)-pyrimidin-4-ylamino]-propyl}-amide] | < 100 nM
12 | CN1CCc2cc(Nc3ncc(C4CC4)c(NCCCNC(=O)C4CCC4)n3)ccc2C1 [Example 199, Cyclobutanecarboxylic acid {3-[5-cyclopropyl-2-(2-methyl-1,2,3,4-tetrahydro-isoquinolin-6-ylamino)-pyrimidin-4-ylamino]-propyl}-amide] | < 100 nM
13 | Cn1ncc2cc(Nc3ncc(C4CC4)c(NCCCNC(=O)C4CCC4)n3)cnc21 [Example 200, Cyclobutanecarboxylic acid {3-[5-cyclopropyl-2-(1-methyl-1H-pyrazolo[3,4-b]pyridin-5-ylamino)-pyrimidin-4-ylamino]-propyl}-amide] | < 100 nM
14 | O=C(NCCCNc1nc(Nc2cnn(CC3CC3)c2)ncc1C1CC1)C1CCC1 [Example 201, Cyclobutanecarboxylic acid {3-[5-cyclopropyl-2-(1-cyclopropylmethyl-1H-pyrazol-4-ylamino)-pyrimidin-4-ylamino]-propyl}-amide] | < 100 nM
15 | O=C(NCCCNc1nc(Nc2cnn(C3CCC3)c2)ncc1C1CC1)C1CCC1 [Example 202, Cyclobutanecarboxylic acid {3-[2-(1-cyclobutyl-1H-pyrazol-4-ylamino)-5-cyclopropyl-pyrimidin-4-ylamino]-propyl}-amide] | < 100 nM
16 | CC(C)N1CCC(n2cc(Nc3ncc(C4CC4)c(NCCCNC(=O)C4CCC4)n3)cn2)CC1 [Example 203, Cyclobutanecarboxylic acid (3-{5-cyclopropyl-2-[1-(1-isopropyl-piperidin-4-yl)-1H-pyrazol-4-ylamino]-pyrimidin-4-ylamino}-propyl)-amide] | < 100 nM
17 | CNc1ccc(Nc2ncc(C3CC3)c(NCCCNC(=O)C3CCC3)n2)cn1 [Example 204, Cyclobutanecarboxylic acid {3-[5-cyclopropyl-2-(6-methylamino-pyridin-3-ylamino)-pyrimidin-4-ylamino]-propyl}-amide] | < 100 nM
18 | CC(C)(C)N1CCC(n2cc(Nc3ncc(C4CC4)c(NCCCNC(=O)C4CCC4)n3)cn2)CC1 [Example 205, Cyclobutanecarboxylic acid (3-{2-[1-(1-tert-butyl-piperidin-4-yl)-1H-pyrazol-4-ylamino]-5-cyclopropyl-pyrimidin-4-ylamino}-propyl)-amide] | < 100 nM
19 | O=C(NCCCNc1nc(Nc2ccc(N3CCN(C4CC4)CC3)nc2)ncc1C1CC1)C1CCC1 [Example 206, Cyclobutanecarboxylic acid (3-{5-cyclopropyl-2-[6-(4-cyclopropyl-piperazin-1-yl)-pyridin-3-ylamino]-pyrimidin-4-ylamino}-propyl)-amide] | < 100 nM
20 | O=C(NCCCNc1nc(Nc2ccc(NC3CCOCC3)nc2)ncc1C1CC1)C1CCC1 [Example 207, Cyclobutanecarboxylic acid (3-{5-cyclopropyl-2-[6-(tetrahydro-pyran-4-ylamino)-pyridin-3-ylamino]-pyrimidin-4-ylamino}-propyl)-amide] | < 100 nM
21 | O=C(NCCCNc1nc(Nc2ccc(C3CC3)nc2)ncc1C1CC1)C1CCC1 [Example 208, Cyclobutanecarboxylic acid {3-[5-cyclopropyl-2-(6-cyclopropyl-pyridin-3-ylamino)-pyrimidin-4-ylamino]-propyl}-amide] | < 100 nM
22 | Cc1nc2ccc(Nc3ncc(C4CC4)c(NCCCNC(=O)C4CCC4)n3)cc2[nH]1 [Example 209, Cyclobutanecarboxylicacid{3-[5-cyclopropyl-2-(2-methyl-3H-benzimidazol-5-ylamino)-pyrimidin-4-ylamino]-propyl}-amide] | < 100 nM
23 | O=C(NCCCNc1nc(Nc2ccc3c(cnn3C3CC3)c2)ncc1C1CC1)C1CCC1 [Example 210, Cyclobutanecarboxylicacid{3-[5-cyclopropyl-2-(1-cyclopropyl-1H-indazol-5-ylamino)-pyrimidin-4-ylamino]-propyl}-amide] | < 100 nM
24 | O=C(NCCCNc1nc(Nc2ccc3cnn(C4CC4)c3c2)ncc1C1CC1)C1CCC1 [Example 211, Cyclobutanecarboxylicacid{3-[5-cyclopropyl-2-(1-cyclopropyl-1H-indazol-6-ylamino)-pyrimidin-4-ylamino]-propyl}-amide] | < 100 nM
25 | O=C(NCCCNc1nc(Nc2ccc3c(cnn3CC3CC3)c2)ncc1C1CC1)C1CCC1 [Example 212, Cyclobutanecarboxylicacid{3-[5-cyclopropyl-2-(1-cyclopropylmethyl-1H-indazol-5-ylamino)-pyrimidin-4-ylamino]-propyl}-amide] | < 100 nM
26 | O=C(NCCCNc1nc(Nc2ccc3nn(CC4CC4)cc3c2)ncc1C1CC1)C1CCC1 [Example 213, Cyclobutanecarboxylicacid{3-[5-cyclopropyl-2-(2-cyclopropylmethyl-2H-indazol-5-ylamino)-pyrimidin-4-ylamino]-propyl}-amide] | < 100 nM
27 | O=C(NCCCNc1nc(Nc2ccc3[nH]nnc3c2)ncc1C1CC1)C1CCC1 [Example 214, Cyclobutanecarboxylicacid{3-[2-(1H-benzotriazol-5-ylamino)-5-cyclopropyl-pyrimidin-4-ylamino]-propyl}-amide] | < 100 nM

— patent US20100056524A1, “Compound” (priority 2008, published 2010)
